Literature values, collected in US6063383A, “Pharmaceutical suppository composites for fever and influenza and method of producing the composites” (priority 1999, dated 2000).
“Also recorded” adds a separate entry of the source. Read-outs that look alike come from different tables or passages of the source.

Tests used:
[1] = system: twisting reaction of small rats caused by acetic acid; conditions: into the stomach
[2] = system: blood capillary permeability; conditions: into the stomach
nephrosis = conditions: intra-abdominal
[3] = system: heart separated from frogs, wister rats, or rabbits
[4] = system: heart failure; left ventricles
sleeping time = conditions: sub-threshold pento-barbital sodium
[5] = system: hemorrhagic heart failure
blood platelets = conditions: ADP, arachidonic acids and collagen
blood cholesterol = conditions: in vivo
[6] = system: TXA; prostate glandis (PGI)
[7] = system: post-synaptic GABA receptors
[8] = system: liver injury caused by carbon tetrachloride
small rats [9] = system: small rats
[10] = system: essential hypertension and critical hypertension; conditions: in vivo
small rats [11] = conditions: rat, in vivo
pain = conditions: oral intake or injection
small rats [12] = system: small rats; remark: listed apart in the source
granuloma = conditions: for anti-granulomatous action: cotton granulomatous method; for anti-osmosis: granulationimplantation
[13] = system: smooth muscles of the gall bladder and the dilator in the opening of the bile duct
[14] = infusing to the stomach of small rats

COc1cc(CC2(O)C(=O)OCC2Cc2ccc(OC)c(OC)c2)ccc1O (single isomer, unassigned) [trachelogenin]
IC50 (colon): 1100 nM | antagonistic action on calcium (colon): noticeable antagonistic action on calcium | effect on contraction (colon; high concentration of potassium): inhibitory effect on the contraction | pA2 (colon; rat, colon): 6.60 | ratio to verapamil (colon; versus verapamil): one-sixth

CCCCCC(O)CC (stereo not drawn) [3-octanol]
inflammation action (inflammation): have inflammation action

CC1CCC(C(C)C)C(O)C1 (stereo not drawn) [Methol]
inhibitory rate on twisting reaction [1]: 41.3%

CC(C)=C1CC[C@@H](C)CC1=O [Pulegone]
inhibitory rate on abdominal osmosis [2]: 39.8%

O=C1C[C@@H]2OCC=C3CN4CC[C@]56c7ccccc7N1[C@H]5[C@H]2[C@H]3C[C@H]46 [Strychnine, reference compound]
antagonism of pyrexia (hypothalamus; rat, in vivo): can antagonize pyrexia

COc1cc(C[C@H]2C(=O)OC[C@@H]2Cc2ccc(OC)c(OC)c2)ccc1O [arctigenin]
excretion of proteins in urine (nephrosis): can inhibit the increase in the excretion of proteins in urine | serum biochemical index (nephrosis): improve the serum biochemical index

C=CC1=C(C)/C(=C/c2[nH]c(Cc3[nH]c(/C=C4\NC(=O)C(C)=C4C=C)c(C)c3CCC(=O)O)c(CCC(=O)O)c2C)NC1=O [bilirubin]
cardiac tonic effect [3]: cardiac tonic effect | contracting effect on aortic arteries (aortic arteries): weaker contracting effect

C[C@H](CCC(=O)O)[C@H]1CC[C@H]2[C@@H]3[C@H](O)C[C@@H]4C[C@H](O)CC[C@]4(C)[C@H]3C[C@H](O)[C@]12C [calcium cholic acid]
blood pressure lowering effect (hypertension; oral, 100 mg/kg): significant and long-lasting blood pressure lowering effect | duration of hypotensive effect (hypertension; oral, 100 mg/kg): one

C[C@H](CCC(=O)O)[C@H]1CC[C@H]2[C@@H]3[C@H](O)C[C@@H]4C[C@H](O)CC[C@]4(C)[C@H]3C[C@H](O)[C@]12C [cholic acid]
cardiac tonic effect [3]: cardiac tonic effect | contracting effect on aortic arteries (aortic arteries): contracting effect

COc1ccc([C@@H]2Sc3ccccc3N(CCN(C)C)C(=O)[C@@H]2OC(C)=O)cc1 [diltiazem, reference compound]
output of left ventricles ([4]; 1 mg/kg): the output of the left ventricles reduces

CC(C)NCC(O)COc1cccc2ccccc12 (stereo not drawn) [propranolol, reference compound]
output of left ventricles ([4]; 1 mg/kg): the output of the left ventricles reduces

NCCS(=O)(=O)O [taurine]
hypnotizing action (sleeping time): increase the hypnotizing action | body temperature (hypothalamus; injection into the hypothalamus): can increase the body temperature | body temperature (hypothalamus; large dosage): can reduce the body temperature | electrical activities (cerebral cortical nerves): can inhibit both the spontaneous and induced electrical activities and produce hyperpolarization | inhibitory effect on the spinal cord and brain stem with strychnine (cerebral cortical nerves; strychnine): antagonized by strychnine | treatment effect ([5]; 6 g daily, four weeks): noticeable treatment effect | action and metabolism of cardiac tonic ([5]; catecholamines and digitalis): does not affect the action and metabolism of cardiac tonic | agglomeration of blood platelets (blood platelets): dosage-dependence relationship; also recorded: inhibitory action on the agglomeration of blood platelets | atherosclerosis (blood cholesterol): prevent atherosclerosis | blood cholesterol (blood cholesterol): reduce blood cholesterol | high-density lipoproteins (blood cholesterol): increase high-density lipoproteins | hypotensive effect (hypertension; essential or deoxy-cortisone acetate-induced hypertension): hypotensive effect | effect on Ca^2+ in the myocardia (cardiac arrhythmias): biphasic moderation | prevention of cardiac arrhythmias (cardiac arrhythmias): can prevent cardiac arrhythmias | anti-arrhythmic effect (cardiac arrhythmias; used together with quinidina, small rats): better anti-arrhythmic effect | formation of PGI (TXA): no noticeable effect | formation of TXA by arachidonic acids [6]: no effect on the formation of TXA by arachidonic acids | formation of TXA by collagen [6]: can inhibit the formation of TXA by collagen | affinity for post-synaptic GABA receptors [7]: no significant affinity | replacement of GABA effects ([7]; central nervous system): cannot replace the inhibitory effect and modulating effect of GABA | protection for liver injury ([8]; in vivo): protection for the liver injury | rise of ALT ([8]; in vivo): inhibits the rise of ALT | repairing of liver cells ([8]; pathological sectioning): can promote the repairing of liver cells and the prevention of lipohepatitis | LD50 (small rats [9]; intravenous): 330 mg/kg | output of left ventricles ([4]; after 1 mg/kg propranolol or diltiazem): can improve the output of left ventricles | life expectancy ([4]; long-term oral): extends the life expectancy of rabbits | prevention of heart failure ([4]; long-term oral, incomplete opening and closing of aortic valves): can prevent the accelerated hemorrhagic heart failure | normal rate and final diastolic pressure of left ventricles ([4]; rabbit, in vivo): does not affect the normal rate of rabbits and the final diastolic pressure of left ventricles | output and systolic pressure of the left ventricles ([4]; rabbit, in vivo): significantly increase the output and systolic pressure of the left ventricles | heart-failure mortality rate ([4]; treatment group): significantly reduces with a lower heart pulse | effect on PGE1 and PGE2 mechanism (heat-induced pyrogenesis; E1 (PGE1) and E2 (PGE2)): so such effect occurs | inhibition of pyrogenesis (heat-induced pyrogenesis; endotoxin and white blood cells, injection into the cerebral ventricles): can inhibit the heat-induced pyrogenesis of endotoxin and white blood cells | effects in treating hypertension [10]: satisfactory | formation of thrombi (formation of thrombi): noticeable inhibition on the formation of thrombi | effect on convulsion (convulsion; pento-tetra-amine, cepharathin, carbon monoxide, aluminum oxide, 4-amino pyride, penicillin, oxygen, low calcium, sound, L-uric acid): inhibitory effect | latency period of convulsion (convulsion; strychnine): can significantly extend the latency period | pathological changes (small rats [11]): no pathological changes are found | pain relief (pain): does not produce noticeable pain relief | effect on cell membrane (myocardia): stabilizing effect on the cell membrane | formation of glutathione (myocardia): increase the formation of glutathione | myocardial blood deficiency and damage (myocardia): can significantly inhibit myocardial blood deficiency and damage | myocardial injury by hyperpolarization of calcium (myocardia): antagonize the myocardial injury | oxygen free radicals (myocardia): reduce the formation of oxygen free radicals; also recorded: increases the excretion of oxygen free radicals

C=C1CCC2CC1C2(C)C (stereo not drawn) [β-pipene]
inflammation action (inflammation): have inflammation action

bupleurum saponin-a
coughing-relieving action, dose relation (coughing; intra-abdominal, 100~200 mg/kg, wister rats, 200 mg/kg): most noticeable coughing-relieving action; also recorded: related to its dosage | action of relieving coughing (coughing; rat, in vivo): stronger action of relieving coughing | inhibition on over-activity (small rats [12]; mounting experiments, conditional aversion): noticeable inhibition on the over-activity | tranquilizing effect (small rats [12]; rat, in vivo): significant tranquilizing effect | anti-granulomatous action (granuloma): anti-granulomatous action | anti-osmosis (granuloma): anti-osmosis

bupleurum saponin-d
anti-granulomatous action (granuloma): anti-granulomatous action | anti-osmosis (granuloma): anti-osmosis

chloretic acid
LD50 (small rats [9]; [14]): 1520 mg/kg

deoxy-chloretic acid
LD50 (small rats [9]; [14]): 1060 mg/kg | LD50 (small rats [9]; intravenous): 150 mg/kg | effect on bile duct / excretion of bile [13]: can relax the dilators of the bile duct
